Source: patent US20220016114A1, “Heart Rate Decreasing Agent” (FURUKAWA RESEARCH OFFICE CO., LTD., priority 2018, published 2022)
“Also recorded” adds a separate entry of the source.

Test system: heart rate of a person
Assay: Variation in heart rate before and after oral ingestion of orotic acid tablets, at rest and after drinking
Assay type: in vivo, human
Conditions: for Symptoms (4 to 5 hours after orotic acid ingestion): placebo: languor
Experimental: Tablets consisting of orotic acid were orally ingested and the variation in heart rate was measured before and after oral ingestion. The test subject was a person. Although they were told at their medical checkup that their cholesterol was slightly high, they had not taken any medication and had no preexisting condition. Their blood pressure was in the normal range, and they had never been diagnosed with a blood pressure problem in the past. Their heart rate was slightly high at about 89 to 92 beats/min, and rarely fell below 86 beats/min even at rest. Since the heart rate quickly increases due to exercise and tension or the like, the measurement day was spent as much as possible doing desk work and the like, and the measurement was made under stable conditions after sitting on a chair for at least several minutes. They were drinking 2 cans of beer and 2 to 3 double glasses of shochu daily. Their heart rate after drinking was increasing to about 105 to 115 beats/min (120 beats/min in rare cases), and they were feeling drunk and mild palpitation. They were also feeling sleepy on some days. The test subject ingested a tablet containing 200 mg of orotic acid by oral administration, and the measurement of their heart rate was started.

O=C(O)c1cc(=O)[nH]c(=O)[nH]1 [Orotic acid, 1,2,3,6-tetrahydro-2,6-dioxo-4-pyrimidinecarboxylic acid]
Overall effect on heart rate and on daily palpitation and fatigue (conclusion from Table 1, person, 200 mg oral): a decrease in heart rate was clearly observed; also recorded: improved the palpitation and fatigue that were felt on a daily basis
Heart rate after stabilisation (later than 4 hours after ingestion) (person, 200 mg oral): in the 70s beats/min to the lower 80s beats/min
Time after ingestion from which heart rate gradually decreased (person, 200 mg oral): about 2 hours
Symptoms (after drinking) (person, 200 mg oral, after usual beer and shochu, placebo: slight drunkenness, mild palpitation, drowsiness): felt almost no drunkenness or palpitation
Heart rate 1 to 2 hours after drinking (person, 200 mg oral, usual amount of beer and shochu after the decrease in heart rate, placebo 105 to 115 beats/min): 85 to 103 beats/min
Symptoms (4 to 5 hours after orotic acid ingestion) (person, 200 mg oral): Clear head; also recorded: No languor
Symptoms (4 to 5 hours after orotic acid ingestion) (person, 200 mg oral, listed as orotic acid): their head was more refreshed and no longer felt lethargic
Heart rate 4 hours after ingestion (person, 200 mg oral, usual heart rate about 89 to 92 beats/min): ≤ 80 beats/min
Heart rate 4 to 5 hours after orotic acid ingestion (person, tablet containing 200 mg orotic acid orally, sitting at rest, placebo 88 to 93 beats/min): 77 to 82 beats/min
